Laboratory results from ChEMBL document CHEMBL3817812, “An expeditious four-component domino protocol for the synthesis of novel thiazolo[3,2-a]thiochromeno[4,3-d]pyrimidine derivatives as antibacterial and antibiofilm agents” (Bioorg Med Chem, 2016).
≈ marks a conversion by molar mass, not a printed value. Calls of active or inactive are those of the source. No cut-off for these calls is given here.

What was measured:
[1] = tested on: Staphylococcus aureus; assay: Bactericidal activity against Staphylococcus aureus MLS16 MTCC 2940 incubated for 24 hrs by broth dilution method; type: functional; conditions: MLS16 MTCC 2940, 24 h
[2] = tested on: Pseudomonas aeruginosa; assay: Antibacterial activity against Pseudomonas aeruginosa MTCC 2453 incubated for 24 hrs by well diffusion method; type: functional; conditions: MTCC 2453, 24 h
[3] = tested on: Micrococcus luteus; assay: Bactericidal activity against Micrococcus luteus MTCC 2470 incubated for 24 hrs by broth dilution method; type: functional; conditions: MTCC 2470, 24 h
[4] = tested on: Staphylococcus aureus; assay: Bactericidal activity against Staphylococcus aureus MTCC 96 incubated for 24 hrs by broth dilution method; type: functional; conditions: MTCC 96, 24 h
[5] = tested on: Micrococcus luteus; assay: Antibiofilm activity against Micrococcus luteus MTCC 2470 incubated for 24 hrs by crystal violet staining-based assay; type: functional, organism-based; conditions: MTCC 2470, 24 h
[6] = tested on: Staphylococcus aureus; assay: Induction of ROS accumulation in Staphylococcus aureus MTCC 96 biofilm at 2 ug/ml after 24 hrs by DCFH-DA staining-based fluorometric assay; type: functional, organism-based
[7] = tested on: Escherichia coli; assay: Antibacterial activity against Escherichia coli MTCC 739 incubated for 24 hrs by well diffusion method; type: functional; conditions: MTCC 739, 24 h
[8] = tested on: Staphylococcus aureus; assay: Antibiofilm activity against Staphylococcus aureus MTCC 96 incubated for 24 hrs by crystal violet staining-based assay; type: functional, organism-based; conditions: MTCC 96, 24 h
[9] = tested on: Bacillus subtilis; assay: Antibacterial activity against Bacillus subtilis MTCC 121 incubated for 24 hrs by well diffusion method; type: functional; conditions: MTCC 121, 24 h
[10] = tested on: Staphylococcus aureus; assay: Antibiofilm activity against Staphylococcus aureus MLS16 MTCC 2940 incubated for 24 hrs by crystal violet staining-based assay; type: functional, organism-based; conditions: MLS16 MTCC 2940, 24 h
[11] = tested on: Staphylococcus aureus; assay: Antibacterial activity against Staphylococcus aureus MLS16 MTCC 2940 incubated for 24 hrs by well diffusion method; type: functional; conditions: MLS16 MTCC 2940, 24 h
[12] = tested on: Staphylococcus aureus; assay: Induction of ROS accumulation in Staphylococcus aureus MTCC 96 biofilm at 4 ug/ml after 24 hrs by DCFH-DA staining-based fluorometric assay; type: functional, organism-based
[13] = tested on: Staphylococcus aureus; assay: Antibacterial activity against Staphylococcus aureus MTCC 96 incubated for 24 hrs by well diffusion method; type: functional; conditions: MTCC 96, 24 h
[14] = tested on: Bacillus subtilis; assay: Antibiofilm activity against Bacillus subtilis MTCC 121 incubated for 24 hrs by crystal violet staining-based assay; type: functional, organism-based; conditions: MTCC 121, 24 h
[15] = tested on: Raoultella planticola; assay: Antibacterial activity against Klebsiella planticola MTCC 530 incubated for 24 hrs by well diffusion method; type: functional; conditions: MTCC 530, 24 h
[16] = tested on: Bacillus subtilis; assay: Bactericidal activity against Bacillus subtilis MTCC 121 incubated for 24 hrs by broth dilution method; type: functional; conditions: MTCC 121, 24 h
[17] = tested on: Micrococcus luteus; assay: Antibacterial activity against Micrococcus luteus MTCC 2470 incubated for 24 hrs by well diffusion method; type: functional; conditions: MTCC 2470, 24 h

SMILES | MBC [1] | MIC [2] | MBC [3] | MBC [4] | IC50 [5] | Activity [6] | MIC [7] | IC50 [8] | MIC [9] | IC50 [10] | MIC [11] | Activity [12] | MIC [13] | IC50 [14] | MIC [15] | MBC [16] | MIC [17]
Cc1ccc(C2=CSC3=NC4=C(CSc5ccccc54)C(c4ccccc4)N23)cc1 (configuration not stated) | 7.8 µg/mL (≈ 18.4 µM) | > 125 µg/mL | 15.6 µg/mL (≈ 36.7 µM) | 7.8 µg/mL (≈ 18.4 µM) | 5.3 µg/mL (≈ 12.5 µM) | Active | > 125 µg/mL | 2.1 µg/mL (≈ 4.95 µM) | 3.9 µg/mL (≈ 9.19 µM) | 2.4 µg/mL (≈ 5.65 µM) | 3.9 µg/mL (≈ 9.19 µM) | Active | 3.9 µg/mL (≈ 9.19 µM) | 1.9 µg/mL (≈ 4.47 µM) | > 125 µg/mL | 3.9 µg/mL (≈ 9.19 µM) | 7.8 µg/mL (≈ 18.4 µM)
O=[N+]([O-])c1ccc(C2=CSC3=NC4=C(CSc5ccccc54)C(c4ccc(Cl)cc4)N23)cc1 (configuration not stated) | > 125 µg/mL | > 125 µg/mL | 31.2 µg/mL (≈ 63.7 µM) | > 125 µg/mL | – | – | > 125 µg/mL | – | 15.6 µg/mL (≈ 31.8 µM) | – | > 125 µg/mL | – | > 125 µg/mL | – | > 125 µg/mL | 31.2 µg/mL (≈ 63.7 µM) | 15.6 µg/mL (≈ 31.8 µM)
O=c1oc2ccccc2cc1C1=CSC2=NC3=C(CSc4ccccc43)C(c3ccc(Cl)cc3)N12 (configuration not stated) | – | > 125 µg/mL | – | – | – | – | > 125 µg/mL | – | > 125 µg/mL | – | > 125 µg/mL | – | > 125 µg/mL | – | > 125 µg/mL | – | > 125 µg/mL
Cc1ccc(C2C3=C(N=C4SC=C(c5ccc(Br)cc5)N42)c2ccccc2SC3)cc1 (configuration not stated) | – | > 125 µg/mL | – | – | – | – | > 125 µg/mL | – | > 125 µg/mL | – | > 125 µg/mL | – | > 125 µg/mL | – | > 125 µg/mL | – | > 125 µg/mL
O=c1oc2ccccc2cc1C1=CSC2=NC3=C(CSc4ccccc43)C(c3ccccc3)N12 (configuration not stated) | 62.5 µg/mL (≈ 131 µM) | > 125 µg/mL | 31.2 µg/mL (≈ 65.2 µM) | 31.2 µg/mL (≈ 65.2 µM) | – | – | > 125 µg/mL | – | 31.2 µg/mL (≈ 65.2 µM) | – | 31.2 µg/mL (≈ 65.2 µM) | – | 15.6 µg/mL (≈ 32.6 µM) | – | > 125 µg/mL | 62.5 µg/mL (≈ 131 µM) | 31.2 µg/mL (≈ 65.2 µM)
O=[N+]([O-])c1cccc(C2C3=C(N=C4SC=C(c5ccc(Cl)cc5)N42)c2ccccc2SC3)c1 (configuration not stated) | – | > 125 µg/mL | – | – | – | – | > 125 µg/mL | – | > 125 µg/mL | – | > 125 µg/mL | – | > 125 µg/mL | – | > 125 µg/mL | – | > 125 µg/mL
Clc1ccc(C2C3=C(N=C4SC=C(c5ccccc5)N42)c2ccccc2SC3)cc1 (configuration not stated) | – | > 125 µg/mL | – | – | – | – | > 125 µg/mL | – | > 125 µg/mL | – | 15.6 µg/mL (≈ 35.1 µM) | – | > 125 µg/mL | – | > 125 µg/mL | – | > 125 µg/mL
Brc1ccc(C2=CSC3=NC4=C(CSc5ccccc54)C(c4ccccc4)N23)cc1 (configuration not stated) | – | > 125 µg/mL | – | – | – | – | > 125 µg/mL | – | > 125 µg/mL | – | > 125 µg/mL | – | > 125 µg/mL | – | > 125 µg/mL | – | > 125 µg/mL
Clc1ccc(C2C3=C(N=C4SC=C(c5ccc(Br)cc5)N42)c2ccccc2SC3)cc1 (configuration not stated) | > 125 µg/mL | > 125 µg/mL | > 125 µg/mL | 62.5 µg/mL (≈ 119 µM) | – | – | > 125 µg/mL | – | 31.2 µg/mL (≈ 59.6 µM) | – | > 125 µg/mL | – | 31.2 µg/mL (≈ 59.6 µM) | – | > 125 µg/mL | 31.2 µg/mL (≈ 59.6 µM) | > 125 µg/mL
Clc1ccc(C2=CSC3=NC4=C(CSc5ccccc54)C(c4ccccc4)N23)cc1 (configuration not stated) | – | > 125 µg/mL | – | – | – | – | > 125 µg/mL | – | > 125 µg/mL | – | > 125 µg/mL | – | > 125 µg/mL | – | > 125 µg/mL | – | > 125 µg/mL
COc1ccc(C2=CSC3=NC4=C(CSc5ccccc54)C(c4ccc(Cl)cc4)N23)cc1 (configuration not stated) | 31.2 µg/mL (≈ 65.7 µM) | > 125 µg/mL | > 125 µg/mL | 15.6 µg/mL (≈ 32.8 µM) | – | – | > 125 µg/mL | – | 62.5 µg/mL (≈ 132 µM) | – | 15.6 µg/mL (≈ 32.8 µM) | – | 7.8 µg/mL (≈ 16.4 µM) | – | > 125 µg/mL | 62.5 µg/mL (≈ 132 µM) | > 125 µg/mL
O=C(O)c1cn(C2CC2)c2cc(N3CCNCC3)c(F)cc2c1=O [CIPROFLOXACIN] | 0.9 µg/mL (≈ 2.72 µM) | 0.9 µg/mL (≈ 2.72 µM) | 1.9 µg/mL (≈ 5.73 µM) | 1.9 µg/mL (≈ 5.73 µM) | 0.4 µg/mL (≈ 1.21 µM) | Active | 0.9 µg/mL (≈ 2.72 µM) | – | 0.9 µg/mL (≈ 2.72 µM) | 0.4 µg/mL (≈ 1.21 µM) | 0.9 µg/mL (≈ 2.72 µM) | Active | 0.9 µg/mL (≈ 2.72 µM) | – | 0.9 µg/mL (≈ 2.72 µM) | 0.9 µg/mL (≈ 2.72 µM) | 0.9 µg/mL (≈ 2.72 µM)
Cc1ccc(C2C3=C(N=C4SC=C(c5cc6ccccc6oc5=O)N42)c2ccccc2SC3)cc1 (configuration not stated) | 31.2 µg/mL (≈ 63.3 µM) | > 125 µg/mL | > 125 µg/mL | 62.5 µg/mL (≈ 127 µM) | – | – | > 125 µg/mL | – | > 125 µg/mL | – | 31.2 µg/mL (≈ 63.3 µM) | – | 31.2 µg/mL (≈ 63.3 µM) | – | > 125 µg/mL | > 125 µg/mL | > 125 µg/mL
O=c1oc2ccccc2cc1C1=CSC2=NC3=C(CSc4ccccc43)C(c3cccc([N+](=O)[O-])c3)N12 (configuration not stated) | – | > 125 µg/mL | – | – | – | – | > 125 µg/mL | – | > 125 µg/mL | – | > 125 µg/mL | – | > 125 µg/mL | – | > 125 µg/mL | – | > 125 µg/mL
C1=C(c2ccccc2)N2C(=NC3=C(CSc4ccccc43)C2c2ccccc2)S1 (configuration not stated) | > 125 µg/mL | > 125 µg/mL | > 125 µg/mL | 62.5 µg/mL (≈ 152 µM) | – | – | > 125 µg/mL | – | > 125 µg/mL | – | > 125 µg/mL | – | 31.2 µg/mL (≈ 76 µM) | – | > 125 µg/mL | > 125 µg/mL | > 125 µg/mL
